Tests used:
HA-tagged wild-type CFTR = test: Cell surface ELISA (anti-HA) in HeLa cells stably expressing HA-tagged wild-type CFTR; format: cell-based; conditions: wild-type CFTR-3HA under CMV promoter, 6, 12, 24 hrs post-transfection
Description: Hela cells stably expressing wild-type CFTR or CFTR-ΔF508 were kindly provided by Dr. G. Lukacs (Sharma, M., Benharouga, M., Hu, W. & Lukacs, G. L. Conformational and temperature-sensitive stability defects of the delta F508 cystic fibrosis transmembrane conductance regulator in post-endoplasmic reticulum compartments. J Biol. Chem. 276, 8942-8950, (2001); Sharma, M. et al. Misfolding diverts CFTR from recycling to degradation: quality control at early endosomes. J Cell Biol. 164, 923-933 (2004)). Cell surface ELISA was performed on these cells (Okiyoneda, T. et al. Peripheral protein quality control removes unfolded CFTR from the plasma membrane. Science 329, 805-810 (2010)) 6 hrs, 12 hrs, and 24 hrs after transfecting with oligonucleotides. HeLa cells were transfected in 96 well plates (Costar) with the SIN3A DsiRNA and miR-138 mimic as described earlier using the Lipofectamine™ RNAiMAX (Invitrogen) recommended reverse transfection protocol. Briefly, the plate containing the cells was moved to a cold room (4° C.), and all media used was ice cold. […] The reaction was stopped and read on a VersaMax™ Microplate Reader (Molecular Devices) at 540 nm using the SoftMax® Prof Software (Molecular Devices). For normalization, cells were lysed and total protein quantitated using the BCA Protein Assay kit (Pierce). […] Statistical significance between groups was determined using Student's t-test.

CFTR-ΔF508 = test: Transepithelial Cl^− current in primary human CFTR null airway epithelia (CFTR Q493X/S912X) transduced with Ad-CFTR-ΔF508; format: cell-based; conditions: CFTR null epithelia (Q493X/S912X) expressing Ad-CFTR-ΔF508, pretreated with oligonucleotide
Procedure: Transepithelial Cl^− current measurements were made in Ussing chambers about 2 weeks post-seeding (Itani, 0. A. et al. Human cystic fibrosis airway epithelia have reduced Cl− conductance but not increased Na+ conductance. Proc. Natl. Acad. Sci. USA 108, 10260-10265 (2011)). Briefly, primary cultures were mounted in a modified Ussing chamber (Jim's Instruments, 8 wells per instrument). Transepithelial Cl^− current was measured under short-circuit current conditions. Cultures were incubated overnight with 10 μM forskolin and 100 μM 3-isobutyl-1-methylxanthine (IBMX). After measuring baseline current, the transepithelial current (It) response to sequential apical addition of 100 μM amiloride (Amil), 100 μM 4,4′-diisothiocyanoto-stilbene-2,2′-disulfonic acid (DIDS), 4.8 mM [Cl^−], 10 μM forskolin and 100 μM 3-isobutyl-1-methylxanthine (IBMX), and 100 μM GlyH-101 was measured. Studies were conducted with a Cl^− concentration gradient containing 135 mM NaCl, 1.2 mM MgCl2, 1.2 mM CaCl2, 2.4 mM K2PO4, 0.6 mM KH2PO4, 5 mM dextrose, and 5 mM Hepes (pH 7.4) on the basolateral surface, and gluconate substituted for Cl^− on the apical side. […]

For “SIN3A DsiRNA: Dicer-substrate siRNA against SIN3A, sense SEQ ID NO: 6, antisense SEQ ID NO: 7 (sense GCGAUACAUGAAUUCAGAUACUACC; antisense GGUAGUAUCUGAAUUCAUGUAUCGCUC; chemistry not given here)”, the “HA-tagged CFTR at the cell surface (ELISA)” value (HA-tagged wild-type CFTR) was “increase” and the “CFTR-mediated Cl^− current” value (CFTR-ΔF508) was “restored”.
“miR-138 mimic: synthetic modified RNA duplex, sense SEQ ID NO: 4, antisense SEQ ID NO: 5, showing miR-138-like activity” was tested, and the “HA-tagged CFTR at the cell surface (ELISA)” value (HA-tagged wild-type CFTR) was “increase” and the “CFTR-mediated Cl^− current” value (CFTR-ΔF508) was “restored”.

Reference: patent publication US20150045410A1, “METHOD OF REGULATING CFTR EXPRESSION AND PROCESSING” (University of Iowa Research Foundation, priority 2012, published 2015)
